Patent US11987586B1 (TAKEDA PHARMACEUTICAL COMPANY LIMITED, priority 2022, dated 2024)

Each compound was assayed against T1, human OX2 receptor (Homo sapiens, UniProt O43614) (assay: Measurement of orexin type 2 receptor agonist activity (calcium fluorescence, Fluo-4, FDSS)). Conditions: 3 uM test compound; CHO cells expressing human OX2 receptor; DMSO = 0%, 10 nM orexin A (human) = 100%.
T1 construct: expressed in transfected cells
T1 sequence (O43614 1-444): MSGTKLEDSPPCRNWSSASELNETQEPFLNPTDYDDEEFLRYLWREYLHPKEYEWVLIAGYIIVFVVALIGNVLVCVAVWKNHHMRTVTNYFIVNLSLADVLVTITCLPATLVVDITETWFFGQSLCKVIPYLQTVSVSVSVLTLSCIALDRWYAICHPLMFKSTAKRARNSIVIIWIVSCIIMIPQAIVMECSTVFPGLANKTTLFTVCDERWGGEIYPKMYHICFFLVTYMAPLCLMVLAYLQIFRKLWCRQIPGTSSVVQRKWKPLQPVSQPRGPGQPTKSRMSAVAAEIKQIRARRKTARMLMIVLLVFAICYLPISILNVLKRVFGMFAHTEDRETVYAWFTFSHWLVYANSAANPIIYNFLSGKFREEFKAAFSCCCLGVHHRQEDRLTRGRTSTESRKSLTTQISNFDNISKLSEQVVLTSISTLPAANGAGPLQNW
Type: cell-based
Procedure, shortened: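 CHO-K1 cells stably expressing human OX2 receptor (residues 1-444) were loaded with Fluo-4 AM plus probenecid. Calcium fluorescence after compound addition was recorded for 1 min 40 s. Activity (%) was scaled between DMSO (0%) and 10 nM orexin A final (100%).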
In the case of `COCc1cc2onc(N3CC[C@H]4N(C[C@@H](NS(C)(=O)=O)C4(F)F)C3=O)c2c(-c2c(F)cccc2F)c1F` [Example 238, N-{(4aR,6R)-2-[4-(2,6-difluorophenyl)-5-fluoro-6-(methoxymethyl)-1,2-benzoxazol-3-yl]-5,5-difluoro-1-oxooctahydropyrrolo[1,2-c]pyrimidin-6-yl}methanesulfonamide], the “OX2R agonist activity (3 uM, %)” value was 106%.
`CCS(=O)(=O)N[C@@H]1Cn2c(cn(-c3noc4cc(COC)c(F)c(-c5c(F)cc(F)cc5F)c34)c2=O)C1(F)F` [Example 239, N-{(6R)-7,7-difluoro-2-[5-fluoro-6-(methoxymethyl)-4-(2,4,6-trifluorophenyl)-1,2-benzoxazol-3-yl]-3-oxo-2,5,6,7-tetrahydro-3H-pyrrolo[1,2-c]imidazol-6-yl}ethanesulfonamide] was tested, and the “OX2R agonist activity (3 uM, %)” value was 95%.
`CS(=O)(=O)N[C@@H]1CN2C(=O)N(c3noc4ccc(F)c(-c5c(F)cc(F)cc5F)c34)CC[C@@H]2C1(F)F` [Example 241, N-{(4aR,6R)-5,5-difluoro-2-[5-fluoro-4-(2,4,6-trifluorophenyl)-1,2-benzoxazol-3-yl]-1-oxooctahydropyrrolo[1,2-c]pyrimidin-6-yl}methanesulfonamide] was tested, and the “OX2R agonist activity (3 uM, %)” value was 100%.
`O=C1N(c2noc3cccc(-c4c(F)cc(F)cc4F)c23)CC[C@H]2N1C[C@@H](NS(=O)(=O)C1CC1)C2(F)F` [Example 242, N-{(4aR,6R)-5,5-Difluoro-1-oxo-2-[4-(2,4,6-trifluorophenyl)-1,2-benzoxazol-3-yl]octahydropyrrolo[1,2-c]pyrimidin-6-yl}cyclopropanesulfonamide] was tested, and the “OX2R agonist activity (3 uM, %)” value was 105%.
In the case of `COCc1cc2onc(-n3cc4n(c3=O)C[C@@H](NS(C)(=O)=O)C4(F)F)c2c(-c2c(F)cc(F)cc2F)c1F` [Example 244, N-{(6R)-7,7-difluoro-2-[5-fluoro-6-(methoxymethyl)-4-(2,4,6-trifluorophenyl)-1,2-benzoxazol-3-yl]-3-oxo-2,5,6,7-tetrahydro-3H-pyrrolo[1,2-c]imidazol-6-yl}methanesulfonamide], the “OX2R agonist activity (3 uM, %)” value was 89%.
With `CCS(=O)(=O)N[C@@H]1CN2C(=O)N(c3noc4cc(F)cc(-c5c(F)cccc5F)c34)CC[C@@H]2C1(F)F` [Example 247, N-{(4aR,6R)-2-[4-(2,6-difluorophenyl)-6-fluoro-1,2-benzoxazol-3-yl]-5,5-difluoro-1-oxooctahydropyrrolo[1,2-c]pyrimidin-6-yl}ethanesulfonamide] the “OX2R agonist activity (3 uM, %)” value was 101%.
For `Cc1cc2onc(N3CC[C@H]4N(C[C@@H](NS(C)(=O)=O)C4(F)F)C3=O)c2c(-c2c(F)cc(F)cc2F)n1` [Example 248, N-{(4aR,6R)-5,5-difluoro-2-[6-methyl-4-(2,4,6-trifluorophenyl)[1,2]oxazolo[4,5-c]pyridin-3-yl]-1-oxooctahydropyrrolo[1,2-c]pyrimidin-6-yl}methanesulfonamide], the “OX2R agonist activity (3 uM, %)” value was 107%.
For `CCOc1cc(-c2c(F)cc(F)cc2F)c2c(N3CC[C@H]4N(C[C@@H](NS(=O)(=O)C5CC5)C4(F)F)C3=O)noc2c1` [Example 249, N-{(4aR,6R)-2-[6-ethoxy-4-(2,4,6-trifluorophenyl)-1,2-benzoxazol-3-yl]-5,5-difluoro-1-oxooctahydropyrrolo[1,2-c]pyrimidin-6-yl}cyclopropanesulfonamide], the “OX2R agonist activity (3 uM, %)” value was 102%.
`COc1cc(-c2c(F)cc(F)cc2F)c2c(-n3cc4n(c3=O)C[C@@H](NS(C)(=O)=O)C4(F)F)noc2n1` [Example 250, N-{(6R)-7,7-difluoro-2-[6-methoxy-4-(2,4,6-trifluorophenyl)[1,2]oxazolo[5,4-b]pyridin-3-yl]-3-oxo-2,5,6,7-tetrahydro-3H-pyrrolo[1,2-c]imidazol-6-yl}methanesulfonamide] was tested, and the “OX2R agonist activity (3 uM, %)” value was 99%.
`CS(=O)(=O)N[C@H]1C[C@H]2CCN(c3noc4cc(C(F)(F)F)cc(-c5c(F)cccc5F)c34)C(=O)N2C1` [Example 251, N-{(4aR,6S)-2-[4-(2,6-difluorophenyl)-6-(trifluoromethyl)-1,2-benzoxazol-3-yl]-1-oxooctahydropyrrolo[1,2-c]pyrimidin-6-yl}methanesulfonamide] was tested, and the “OX2R agonist activity (3 uM, %)” value was 109%.
